Results taken from patent publication US10407445B2, “Hepatitis C virus inhibitors” (ENANTA PHARMACEUTICALS, INC., priority 2013, dated 2019).

Assays:
Assay type in all cases: cell-based
HCV GT 1b replicon = test: HCV replicon assay, stable GT 1b replicon (Renilla luciferase); conditions: Hepatitis C virus, GT1B, 72 h
Description: (§1) The activity of compounds was determined against HCV replicons representing genotypes (GT) 1a, 1b, 2a, and 3a. To generate stable Huh-7.5-based cell lines, HCV replicons were engineered to express the Renilla luciferase reporter (hRluc) fused to the neomycin phosphotransferase (Neo) gene. GT2a and GT3a HCV replicons were based on the JFH-1 subgenomic replicon (Kato et al. 2003 Gastroenterology, 125:1808-1817), in which the NS5A gene was replaced with that of strains J6 and S52 (GT2a and G3a, respectively). The activity of compounds against GT1a replicons encoding NS5A mutations (M28T, Q30R, L31M, Y93C, and Y93H) was also determined in a transient replication assay. The parental GT1a and GT2a replicons (pH/SG-Neo(L+I) and pSG-Neo-JFH1, respectively) were licensed from Apath LLC (Saint Louis, Mo.). The parental GT 1b replicon (pFKi389lucubineo_3_3′_ET) was licensed from ReBLikon GmbH (Germany). HCV replicons were constructed by standard molecular biology techniques described below. All replicon constructs were verified by restriction enzyme digestion and DNA sequencing.
The hRluc-Neo cassette was PCR amplified from pF9 cytomegalovirus (CMV) hRluc-Neo Flexi(R) (Promega) using Accuprime Super Mix II (Invitrogen) and the following primers, which introduce restriction sites: […]
The amplification product was subcloned into pCR2.1-TOPO (Invitrogen). The resulting plasmid was digested with AscI and NotI, and the excised hRluc-Neo fragment was ligated using the Roche Quick Ligation Kit (Roche) into pFKi389lucubineo_3_3′_ET digested with the same enzymes.
Stable HCV replicon cell lines were grown in complete media (Dulbecco's modified Eagle medium [DMEM], 2 mM L-glutamine, 0.1 mM essential amino acids, 1 mM sodium pyruvate, 10% heat inactivated fetal bovine serum) with the addition 500 μg/ml […] (G418). Huh7-lunet cells were maintained in the same medium without the addition of G418. Cells were routinely passaged at a dilution of 1:4 two times a week. The assay medium for both luciferase reporter HCV replicon and cytotoxicity assays used phenol red-free DMEM and lacked G418. For each stable replicon assay, a sixteen point half-log dilution series of compound was stamped (0.5 ul compound per well) into three replica 384-well plates, to which cells were added directly (4000 cells/well). For the transient replication assay, Huh7-lunet cells in ice-cold phosphate buffered saline (PBS) were electroporated (BioRad electroporator; 950 uF, 270V) with 10 ug purified in vitro transcribed HCV replicon RNA, followed by resuspension in complete media and plating (8000 cells/well) into compound stamped 384-well plates. Luciferase activity of compound-treated cells was measured relative to DMSO-treated cells after 72 h incubation using RENILLA-GLO™ Luciferase Assay (Promega). Cytotoxicity (CC50) in the GT1b replicon cell line was analyzed using CELL TITER-GLO™ (Promega).
The compounds of the present invention can be effective against the HCV 1b genotype. It should also be understood that the compounds of the present invention can inhibit multiple genotypes of HCV. In one embodiment compound of the present invention are active against the 1a, 1b, 2a, 2b, 3a, 4a, and 5a genotypes. In another embodiment compound of the present invention are active against the HCV resistant mutants. […] EC50s are in pM against HCV GT 1a and GT 1b; and nM against GT 2a-J6, GT 3a and GT1a resistant variants (M28T, Q30R, L31V, Y93C and Y93H).

HCV GT 2a-J6 replicon = test: HCV replicon assay, GT2a chimeric replicon expressing NS5A from GT2a strain J6; conditions: Hepatitis C virus, 72 h, read-out: EC50 2a J6
Description: as §1
(§2) The plasmid pSG-hRlucNeo-JFH1 was generated from pSG-Neo-JFH1 (Kato et al. 2003, Gastroentrology 125:1808-1817). A fragment containing the JFH-1 5′ NTR—hRluc-Neo gene and two unique restriction sites (AgeI and PmeI) was synthesized (Integrated DNA Technologies, Coralville, Iowa). The resulting synthetic plasmid was digested with AgeI and PmeI and the excised fragment (5′NTR-hRluc-Neo) was ligated into pSG-Neo-JFH1 digested with the same enzymes to generate pSG-hRlucNeo-JFH1. To allow expression of heterologous NS5A sequences, an NS5A shuttle vector was generated from pSG-Neo-JFH1, in which the entire coding sequence of NS5A plus the first eight codons of NS5B were replaced with an AfeI restriction site. This was done by Infusion cloning (Clontech, Mountain View, Calif.) from two PCR products that were generated using pSG-Neo-JFH1 as a template and the following primer pairs:
(§3) Underlined sequences denote regions of overlap necessary for Infusion cloning. Purified PCR products were cloned directly into an NsiI/SnaBI digested pSG-Neo-JFH1 following the manufacturer's instructions to generate pSG-Neo-JFH1-5Ashuttle. The 2023 base pair AgeI/PmeI fragment from pSG-hRlucNeo-JFH1 was then ligated into pSG-Neo-JFH1-5Ashuttle to generate pSG-hRlucNeo-JFH1-5Ashuttle. To generate the 2a-2a-(J6) and 2a-3a-(S52) NS5A chimeric replicons, the full length NS5A sequences from GT2a strain J6 (accession AF177036) and GT3a strain S52 (accession GU814263), with the addition of the first eight codons of JFH-1 NS5B (5′-TCCATGTCATACTCCTGGACCGGG-3′), were synthesized by GeneArt (Life Technologies, Carlsbad Calif.). J6 and S52 NS5A sequences were then PCR amplified from the synthetic clones using the appropriate forward primer:
(§4) Underlined sequences denote regions of overlap with pSG-hRlucNeo-JFH1-5Ashuttle necessary for Infusion cloning. Purified PCR products were directly cloned into AfeI-digested shuttle vector by Infusion cloning following the manufacturer's instructions.
(§5) Stable HCV replicon cell lines were grown in complete media (Dulbecco's modified Eagle medium [DMEM], 2 mM L-glutamine, 0.1 mM essential amino acids, 1 mM sodium pyruvate, 10% heat inactivated fetal bovine serum) with the addition 500 μg/ml […] (G418). Huh7-lunet cells were maintained in the same medium without the addition of G418. Cells were routinely passaged at a dilution of 1:4 two times a week. The assay medium for both luciferase reporter HCV replicon and cytotoxicity assays used phenol red-free DMEM and lacked G418. For each stable replicon assay, a sixteen point half-log dilution series of compound was stamped (0.5 ul compound per well) into three replica 384-well plates, to which cells were added directly (4000 cells/well). […]

HCV GT 3a replicon = test: HCV replicon assay, GT2a chimeric replicon expressing NS5A from GT3a strain S52; conditions: Hepatitis C virus, 72 h, read-out: EC50 3a
Description: as §1, §2, §3, §4, §5

[1] = system: GT1a replicon encoding NS5A mutation M28T; test: Transient replication assay, GT1a replicon with NS5A mutation M28T; conditions: Hepatitis C virus, read-out: EC50 1a M28T
[2] = system: GT1a replicon encoding NS5A mutation Y93C; test: Transient replication assay, GT1a replicon with NS5A mutation Y93C; conditions: Hepatitis C virus, read-out: EC50 1a Y93C

Row | SMILES | EC50 (HCV GT 1b replicon) | EC50 (HCV GT 2a-J6 replicon) | EC50 (HCV GT 3a replicon) | EC50 [1] | EC50 [2]
1 | COC(=O)N[C@H](C(=O)N1CCC[C@H]1c1nc2c([nH]1)-c1ccc(-c3ccc4c(ccc5nc([C@@H]6C[C@@]7(CCCOC7)CN6C(=O)[C@@H](NC(=O)OC)C(C)C)[nH]c54)c3)cc1OC2)C(C)C [Compound 25] | 68 pM | 800 pM | 600 pM | 500 pM | 90 pM
2 | COC(=O)N[C@H](C(=O)N1C[C@]2(CCCOC2)C[C@H]1c1ncc(-c2ccc(-c3ccc4c(ccc5nc([C@@H]6C[C@@H]7CCC[C@@H]7N6C(=O)[C@@H](NC(=O)OC)C(C)C)[nH]c54)c3)cc2)[nH]1)C(C)C [Compound 16] | 10 pM | 800 pM | 800 pM | 80 pM | 300 pM
3 | COC(=O)N[C@H](C(=O)N1C[C@]2(CCCOC2)C[C@H]1c1ncc(-c2ccc(-c3ccc4c(ccc5nc([C@@H]6C[C@H]7C[C@H]7N6C(=O)[C@@H](NC(=O)OC)C(C)C)[nH]c54)c3)cc2)[nH]1)C(C)C [Compound 18] | 11 pM | 2000 pM | 1000 pM | 200 pM | 200 pM
4 | COC(=O)N[C@H](C(=O)N1C[C@@]2(CCOC2)C[C@H]1c1ncc(-c2ccc(-c3ccc4c(ccc5nc([C@@H]6CCCN6C(=O)[C@@H](NC(=O)OC)C(C)C)[nH]c54)c3)cc2)[nH]1)C(C)C [Compound 50] | 16 pM | 13000 pM | 10000 pM | 500 pM | 400 pM
5 | COC(=O)N[C@H](C(=O)N1C[C@]2(CCCOC2)C[C@H]1c1ncc(-c2ccc(-c3ccc4c(ccc5nc([C@@H]6C[C@@]7(CCCOC7)CN6C(=O)[C@@H](NC(=O)OC)C(C)C)[nH]c54)c3)cc2)[nH]1)C(C)C [Compound 11] | 52 pM | 2000 pM | 400 pM | 20 pM | 70 pM
6 | COC(=O)N[C@H](C(=O)N1C[C@]2(CCCOC2)C[C@H]1c1ncc(-c2ccc(-c3ccc4c(c3)OCc3nc([C@@H]5C[C@@H]6CCCC[C@@H]6N5C(=O)[C@@H](NC(=O)OC)C(C)C)[nH]c3-4)cc2)[nH]1)C(C)C [Compound 42] | 6 pM | 2000 pM | 1000 pM | 200 pM | 600 pM
7 | COC(=O)N[C@H](C(=O)N1C[C@]2(CCCOC2)C[C@H]1c1ncc(-c2ccc(-c3ccc4c(c3)CCCc3nc([C@@H]5C[C@@H]6CCCC[C@@H]6N5C(=O)[C@@H](NC(=O)OC)C(C)C)[nH]c3-4)cc2)[nH]1)C(C)C [Compound 40] | 8 pM | 55000 pM | 44000 pM | 600 pM | 700 pM
8 | COC(=O)N[C@H](C(=O)N1C[C@]2(CCCCO2)C[C@H]1c1nc(-c2ccc(-c3ccc4c(ccc5nc([C@@H]6CCCN6C(=O)[C@@H](NC(=O)OC)C(C)C)[nH]c54)c3)cc2)c[nH]1)C(C)C [Example 2] | 7 pM | 27000 pM | 1000 pM | 100 pM | 200 pM
9 | COC(=O)N[C@H](C(=O)N1C[C@@]2(CCCO2)C[C@H]1c1ncc(-c2ccc(-c3ccc4c(ccc5nc([C@@H]6CCCN6C(=O)[C@@H](NC(=O)OC)C(C)C)[nH]c54)c3)cc2)[nH]1)C(C)C [Example 82] | 8 pM | 40000 pM | 5000 pM | 14000 pM | 200 pM
10 | COC(=O)N[C@H](C(=O)N1C[C@]2(CCCOC2)C[C@H]1c1nc2ccc3cc(-c4ccc(-c5cnc([C@@H]6C[C@@H]7COC[C@@H]7N6C(=O)[C@@H](NC(=O)OC)C(C)C)[nH]5)cc4)ccc3c2[nH]1)C(C)C [Compound 34] | 41 pM | 700 pM | 1500 pM | 30 pM | 90 pM
11 | COC(=O)N[C@H](C(=O)N1CCC[C@H]1c1ncc(-c2ccc(-c3ccc4c(ccc5nc([C@@H]6C[C@@]7(CCCOC7)CN6C(=O)[C@@H](NC(=O)OC)C(C)C)[nH]c54)c3)cc2)[nH]1)C(C)C [Compound 44] | 16 pM | 1000 pM | 60 pM | 60 pM | 200 pM
12 | COC(=O)N[C@H](C(=O)N1CC2(CCOCC2)C[C@H]1c1ncc(-c2ccc(-c3ccc4c(ccc5nc([C@@H]6CCCN6C(=O)[C@@H](NC(=O)OC)C(C)C)[nH]c54)c3)cc2)[nH]1)C(C)C [Example 83] | 42 pM | 32000 pM | 700 pM | 900 pM | 1000 pM
13 | COC(=O)N[C@H](C(=O)N1C[C@]2(CCCOC2)C[C@H]1c1ncc(-c2ccc(-c3ccc4c(ccc5nc([C@@H]6CCCN6C(=O)[C@@H](NC(=O)OC)C(C)C)[nH]c54)c3)cc2)[nH]1)C(C)C [Compound 47] | 16 pM | 600 pM | 80 pM | 200 pM | 300 pM
14 | COC(=O)N[C@H](C(=O)N1CCC[C@H]1c1ncc(-c2ccc(-c3ccc4c(ccc5nc([C@@H]6CCCN6C(=O)[C@@H](NC(=O)OC)C(C)C)[nH]c54)c3)cc2)[nH]1)C(C)C [Example 102] | 14 pM | 1000 pM | 60 pM | 1000 pM | 600 pM
15 | COC(=O)N[C@H](C(=O)N1C[C@]2(CCCOC2)C[C@H]1c1ncc(-c2ccc(-c3ccc(-c4cnc([C@@H]5C[C@@H]6CCC[C@@H]6N5C(=O)[C@@H](NC(=O)OC)C(C)C)[nH]4)cc3)cc2)[nH]1)C(C)C [Compound 37] | 9 pM | 700 pM | 3000 pM | 30 pM | 1000 pM
